The text below walks through data of the Deep4Chem optical property database.

SMILES strings stand for the structures.

The data set can be described thus: photoluminescence quantum yield (fraction); solvent given as SMILES.
Setting [1] is: in c1cc(-n2c3ccccc3c3ccccc32)cc(-n2c3ccccc3c3ccccc32)c1.

`c1ccc(-c2nc(-c3ccccc3)nc(-c3cc(-n4c5ccccc5c5ccccc54)cc(-n4c5ccccc5c5ccccc54)c3)n2)cc1` yielded a photoluminescence quantum yield (in O=P(c1ccccc1)(c1ccccc1)c1ccc2oc3ccc(P(=O)(c4ccccc4)c4ccccc4)cc3c2c1) of 0.58. As to `CC(C)c1cc(C(C)C)c(B2c3ccccc3Oc3cc(N4c5ccccc5C(C)(C)c5ccccc54)ccc32)c(C(C)C)c1`, the photoluminescence quantum yield (in Cc1ccccc1) is 1. As to `C[N+]1=C(/C=C/C2=C3Oc4c(cc5c6c4CCCN6CCC5)C(c4ccccc4C(=O)O)=C3CCC2)C(C)(C)c2c1ccc1ccccc21`, the photoluminescence quantum yield by setting is: (in CC#N) 0.2; (in CCO) 0.29; (in CO) 0.3; (in ClC(Cl)Cl) 0.46. As to `Cc1cccc(-c2cnc3ccc4ccccc4n23)c1`, the photoluminescence quantum yield (in ClCCl) is 0.55. The compound `COc1ccc(-c2cc(/C=C/c3ccc(N(c4ccccc4)c4ccccc4)cc3)c(C#N)c(N3CCCCC3)c2)cc1` came in with a photoluminescence quantum yield (in CS(C)=O) of 0.57. `CCCCCCc1cc2c3c(c1)c(=C1c4ccccc4Sc4ccccc41)c1cc(CCCCCC)cc4c1N3c1c(cc(CCCCCC)cc1c4=C1c3ccccc3Sc3ccccc31)c2=C1c2ccccc2Sc2ccccc21` showed a photoluminescence quantum yield (in ClCCl) of 0.57.

`O=c1c2ccccc2n2c3ccc(-c4ccccc4)cc3c(=O)c3cccc1c32` returned a photoluminescence quantum yield (in c1cc(-c2cccc(-n3c4ccccc4c4ccccc43)c2)cc(-n2c3ccccc3c3ccccc32)c1) of 0.73 and a photoluminescence quantum yield under setting [1] of 0.73. Turning to `CC(C)(C)c1ccc(-c2c3c(c(-c4ccc(C(C)(C)C)cc4)c4cc5ccccc5cc24)Cc2c(c(-c4ccc(C(C)(C)C)cc4)c4cc5ccccc5cc4c2-c2ccc(C(C)(C)C)cc2)C3)cc1`, the photoluminescence quantum yield (in ClCCl) was found to be 0.15.

With `C(#Cc1ccc2c(c1)c1cc(C#Cc3ccccc3)ccc1n2-c1cc2ccccc2c2ccccc12)c1ccccc1`, the photoluminescence quantum yield (in ClCCl) was determined as 0.32. Take `CN(C)c1ccc2c(-c3cc(C(=O)[O-])ccc3C(=O)[O-])c3ccc(=[N+](C)C)cc-3oc2c1`: the photoluminescence quantum yield came to 0.59 (in CCO) and 0.45 (in O). For the compound `Cc1cc(-c2ccc(C(C)(C)C)cc2)cc(C)[o+]1`, the photoluminescence quantum yield worked out at 0.36 (in CC#N) and 0.25 (in ClCCl).

Compound `COc1ccc(N2c3ccc4ccccc4c3-c3c4ccccc4cc[n+]3[B-]2(c2ccccc2)c2ccccc2)cc1` gave a photoluminescence quantum yield (in Cc1ccccc1) of 0.001. `COc1ccc(C#Cc2c3cc4ccccc4cc3c(C#C[Si](C(C)C)(C(C)C)C(C)C)c3cc4ccccc4cc23)cc1`: where the note is “in ClCCl”, the photoluminescence quantum yield was 0.05. As for `CC[B-]1(CC)c2cccc3cc4ccccc4c(c23)-c2cccc(C)[n+]21`, the photoluminescence quantum yield (in ClCCl) was found to be 0.202. `CSC1=C2C=C(c3cc4n(c3)[B-](F)(F)[N+]3=CC=CC3=C4c3c(C)cc(C)cc3C)C(C)=[N+]2[B-](F)(F)n2c(C)ccc21` displayed a photoluminescence quantum yield (in C1CCCCC1) of 0.83; a photoluminescence quantum yield (in CC#N) of 0.01; a photoluminescence quantum yield (in CC(C)=O) of 0.01; a photoluminescence quantum yield (in CCOC(C)=O) of 0.19; a photoluminescence quantum yield (in Cc1ccccc1) of 0.57. Under setting [1], `N#Cc1cc(-n2c3ccccc3c3cccnc32)c(-n2c3ccccc3c3cccnc32)cc1C#N` came in with a photoluminescence quantum yield of 0.37.

Regarding `CCOC(=O)c1ccc(/C=C/C2=[N+]3C(=C(c4ccccc4)c4ccc(/C=C/c5ccc(C(=O)OCC)o5)n4[B-]3(F)F)C=C2)o1`, the photoluminescence quantum yield (in ClC(Cl)Cl) was 0.29. For the compound `Oc1cccc2c(C3(O)C4CC5CC(C4)CC3C5)cccc12` (configuration not stated), the photoluminescence quantum yield (in CC#N) was 0.33. Under “in ClCCl”, `C(=C\c1ccc(/C=C/c2ccc(N(c3ccccc3)c3ccccc3)cc2)cc1)/c1ccc(/C=C/c2ccc(N(c3ccccc3)c3ccccc3)cc2)cc1` yielded a photoluminescence quantum yield of 0.84.

Consider `Cc1ccc(C2=Cc3c4ccccc4c4ccccc4[n+]3[B-](F)(F)O2)cc1`, for which the photoluminescence quantum yield (in ClC(Cl)Cl) was determined as 0.275. With `COc1ccc(/C=C/c2ccccc2)cc1OC`, the photoluminescence quantum yield (in C1CCCCC1) is 0.06; the photoluminescence quantum yield (in CC#N) is 0.035; the photoluminescence quantum yield (in CC(C)O) amounted to 0.041; the photoluminescence quantum yield (in CCCCOCCCC) is 0.05; the photoluminescence quantum yield (in CCOC(C)=O) was found to be 0.046; the photoluminescence quantum yield (in CCOCC) is 0.051. As for `COc1cn2cc(-c3ccc(C#N)cc3)[n-][n+]2c1`, the photoluminescence quantum yield (in ClCCl) worked out at 0.57.
